According to PMC3715147 (Journal of natural products, 2013):

Experiments:
[1] = tested on: HIV-1 NL4-3; assay: Anti-HIV assay: HIV-1 NL4-3 replication in MT4 cells; type: cell-based; conditions: Human immunodeficiency virus 1, NL43, Lymphocyte, read-out: anti-HIV EC90
[2] = tested on: HIV-1 R5 viruses; conditions: cited from earlier work
[3] = tested on: X4 or dual tropic HIV-1; conditions: peripheral blood mononuclear cells (PBMCs); cited from earlier work

In the case of `CCCCCCCCCC(=O)O[C@@]12[C@H](OC(=O)c3ccccc3)[C@@H](C)[C@@]3(O)[C@@H](C=C(CO)C[C@]4(O)C(=O)C(C)=C[C@@H]34)[C@@H]1C2(C)C` [Compound 1, stellerarin], the EC90 [1] is reported as < 1 nM.

With `CCCCCCCC(=O)O[C@]12[C@H]([C@@H]3C=C(CO)C[C@]4(O)C(=O)C(C)=C[C@H]4[C@@]3(O)C[C@H]1OC(=O)c1ccccc1)C2(C)C` [Compound 2, 12-O-benzoylphorbol 13-octanoate] the EC90 [1] was < 1 nM.

With `CCCCC/C=C\CCC(=O)O[C@@]12[C@H](OC(=O)c3ccccc3)[C@@H](C)[C@@]3(O)[C@@H](C=C(CO)C[C@]4(O)C(=O)C(C)=C[C@@H]34)[C@@H]1C2(C)C` [Compound 3, stelleracin A] the EC90 [1] was < 1 nM.

For `C=C(C)[C@@]12C[C@@H](COC(=O)c3ccccc3)[C@@]34OC5(O[C@@H]1[C@@H]3[C@@H]1O[C@]1(CO)[C@@H](O)[C@@]1(O)[C@H]4[C@H]([C@H](C)[C@@H]1OC(=O)c1ccccc1)[C@H](C)CCCCCC[C@H]5O)O2` [gnidimacrin], the “inhibition of HIV-1 R5 viruses (in words)” value [2] is listed as “potent inhibitor” and the “activity against X4 or dual tropic HIV-1 replication (in words)” value [3] is listed as “essentially inactive”.
